Test results published in patent publication US20020028237A1, “Method for reducing toxicity of a cytotoxic agent” (priority 2000, published 2002).

Columns and labels:
[1] = tested on: murine and human xenograft tumor models; settings: in vivo; cited from earlier work
[2] = tested on: canine non-Hodgkin's lymphoma; settings: cited from earlier work
PPE lesions = assay: Rat model of Doxil-induced palmar-plantar erythrodysesthesia (PPE); format: in vivo, Sprague-Dawley rats
Experimental: PPE score is the product of Severity Score and percentage of body area affected. Overall PPE score is the sum of scores for each body area.
24 male Sprague-Dawley rats weighing between 250 to 300 grams(g) were intravenously (IV) treated with Doxil® weekly for 5 cycles of administration. The dosage administered was 2.5 mg/kg IV. […] The rats were observed weekly for lesions and scoring (FIG. 1). Scores for severity and percentage affected body area were analyzed and reported on final observation.
Sprague-Dawley rats were treated with amifostine at a dosage of 100 or 200 milligram/kilogram (mg/kg) IV, weekly, approximately 15 minutes before each Doxil® injection or treated with amifostine, 100 mg/kg IV, twice weekly at 15 min before and 3 days after Doxil injection (FIG. 2).

Lewis lung tumors = assay: Growth of SC Lewis lung tumors
Experimental: Doxil® was administered 4 mg/kg IV, weekly for 3 cycles. Amifostine, 100 or 200 mg/kg IV, was administered before and 1, 2, and 3 days after each Doxil® treatment cycle.

C26 colon tumors = assay: Survival of mice with IP C26 colon tumors; format: in vivo, BalbC mice; settings: amifostine 200 mg/kg for five administrations
Experimental: Euthanasia was provided for animals with weight loss greater than 20% or with clinical signs of distress. Survival of female BalbC mice with IP C26 colon tumors treated once with Doxil® (8 mg/kg) (tumor inoculation: 10^6 cells IP). Animals were administered 200 mg/kg of amifostine subcutaneously (SC) prior to Doxil® administration and 1, 2, 4 and 6 days after Doxil® administration (FIG. 4).

SMILES | effect of pyridoxine co-treatment on therapeutic effect of liposomal doxorubicin [1] | likelihood of severe PPE and discontinuation, placebo-treated versus pyridoxine-treated dogs (relative risk) ([2]; liposomal doxorubicin 1 mg/kg q 3 weeks x5, pyridoxine 50 mg tid oral 15 weeks, p=0.032) [fold] | remission rates between groups ([2]; pyridoxine versus placebo) | duration of remission ([2]; pyridoxine-treated dogs, placebo 48 days, p=0.084) [days] | survival ([2]; pyridoxine-treated dogs, placebo 130 days, p=0.182) [days] | overall PPE severity score (PPE lesions; amifostine 100 mg/kg IV twice weekly, 15 min before and 3 days after Doxil 2.5 mg/kg, p<0.02) | overall PPE severity score (PPE lesions; amifostine 100 mg/kg IV weekly, 15 min before each Doxil 2.5 mg/kg, not significant) | overall PPE severity score (PPE lesions; amifostine 200 mg/kg IV weekly before each Doxil 2.5 mg/kg, p<0.01) | incidence of PPE (PPE lesions; amifostine treatment with liposomal doxorubicin 2.5 mg/kg weekly) | rate of tumor growth (Lewis lung tumors; Doxil 4 mg/kg IV weekly for 3 cycles, amifostine 100 or 200 mg/kg IV before and 1, 2, 3 days after each Doxil) | toxicity to the animals (Lewis lung tumors; amifostine 200 mg/kg days 0-3 of each Doxil treatment cycle) | toxicity (weight loss, lethargy) (C26 colon tumors)
Cc1ncc(CO)c(CO)c1O [pyridoxine] | does not reduce the therapeutic effect | 4.2 | No difference | 159 | 201 |  |  |  |  |  |  | 
NCCCNCCSP(=O)(O)O [amifostine] |  |  |  |  |  | 4.33 | 7.94 | 3.18 | reduced | did not affect rate of tumor growth | not significantly toxic | Significant toxicity
